From patent US5081232A, “Complexes of TC99m radiopharmaceuticals” (priority 1987, dated 1992)
Where two headings read alike, the source gives them in different places. Blank lines part the entries; values can stand above or below the compound they belong to.

Legend:
[1] = Animal biodistribution (in vivo, i.v. injection); conditions: rats; for Blood, % injected dose/organ: blood taken as 5.8% of body weight; for Muscle, % injected dose/organ: muscle taken as 43% of body weight
Protocol: (§1) 0.1 ml Tc^99m prep was injected i.v. into a lateral tail vein of 6 anaesthetised rats.
(§2) At 2 minutes and 60 minutes post injection, 3 rats were sacrificed by decapitation, bled from the neck and dissected. The following organs were removed at dissection: kidney, bladder(+urine), lung, liver, spleen, stomach, small intestine, large intestine, brain (weighed), heart (weighed), thyroid, and samples of blood (weighed) and muscle (weighed, the residual carcass and the tail (injection site). Subsequently samples were counted in an automatic twin crystal gamma counter.
(§3) Percentage biodistribution of injected material was calculated (after correction for background) for all organs using the formula: [formula]
(§4) Since only samples of muscle and blood were taken, the percentage in these tissues was calculated assuming blood and muscle to represent 5.8 and 43% of total animal weight respectively using the formula: [formula] where CF= 0.058 for blood

[2] = rat, in vivo, iv
Protocol: as §1, §2, §3, §4

Structure (SMILES): CP(C)CCP(C)C.CP(C)CCP(C)C.N#[O+].[99Tc+].[Cl-].[Cl-]
Brain, % injected dose/organ ([1]; 2 min p.i.): 0.04 % injected dose/organ
Heart, % injected dose/organ ([1]; 2 min p.i.): 0.46 % injected dose/organ
Heart/Blood Counts/Gram ratio ([1]; 2 min p.i.): 0.68
Heart/Liver Counts/Gram ratio ([1]; 2 min p.i.): 0.38
Heart/Lung Counts/Gram ratio ([1]; 2 min p.i.): 0.71
Heart/Muscle Counts/Gram ratio ([1]; 2 min p.i.): 1.85
Kidney + Urine, % injected dose/organ ([1]; 2 min p.i.): 10.18 % injected dose/organ
Liver + GI, % injected dose/organ ([1]; 2 min p.i.): 26.33 % injected dose/organ
Liver, % injected dose/organ ([1]; 2 min p.i.): 15.03 % injected dose/organ
Lung, % injected dose/organ ([1]; 2 min p.i.): 1.09 % injected dose/organ
Blood, % injected dose/organ ([1]; 2 min p.i.): 9.96 % injected dose/organ
Muscle, % injected dose/organ ([1]; 2 min p.i.): 27.00 % injected dose/organ
Brain, % injected dose/organ ([1]; 60 min p.i.): 0.01 % injected dose/organ
Heart, % injected dose/organ ([1]; 60 min p.i.): 0.30 % injected dose/organ
Heart/Blood Counts/Gram ratio ([1]; 60 min p.i.): 4.48
Heart/Liver Counts/Gram ratio ([1]; 60 min p.i.): 1.13
Heart/Lung Counts/Gram ratio ([1]; 60 min p.i.): 1.53
Heart/Muscle Counts/Gram ratio ([1]; 60 min p.i.): 2.34
Kidney + Urine, % injected dose/organ ([1]; 60 min p.i.): 42.60 % injected dose/organ
Liver + GI, % injected dose/organ ([1]; 60 min p.i.): 34.70 % injected dose/organ
Liver, % injected dose/organ ([1]; 60 min p.i.): 3.14 % injected dose/organ
Lung, % injected dose/organ ([1]; 60 min p.i.): 0.33 % injected dose/organ
Blood, % injected dose/organ ([1]; 60 min p.i.): 1.02 % injected dose/organ
Muscle, % injected dose/organ ([1]; 60 min p.i.): 14.10 % injected dose/organ

Brain, % injected dose/organ ([1]; 2 min p.i.): 0.08 % injected dose/organ
Heart, % injected dose/organ ([1]; 2 min p.i.): 0.40 % injected dose/organ
Heart/Blood Counts/Gram ratio ([1]; 2 min p.i.): 1.59
Heart/Liver Counts/Gram ratio ([1]; 2 min p.i.): 35.14
Heart/Lung Counts/Gram ratio ([1]; 2 min p.i.): 1.55
Heart/Muscle Counts/Gram ratio ([1]; 2 min p.i.): 1.99
Kidney + Urine, % injected dose/organ ([1]; 2 min p.i.): 1.97 % injected dose/organ
Liver, % injected dose/organ ([1]; 2 min p.i.): 0.16 % injected dose/organ
Lung, % injected dose/organ ([1]; 2 min p.i.): 0.67 % injected dose/organ
Blood, % injected dose/organ ([1]; 2 min p.i.): 3.98 % injected dose/organ
Muscle, % injected dose/organ ([1]; 2 min p.i.): 22.83 % injected dose/organ
Brain, % injected dose/organ ([1]; 60 min p.i.): 0.04 % injected dose/organ
Heart, % injected dose/organ ([1]; 60 min p.i.): 0.29 % injected dose/organ
Heart/Blood Counts/Gram ratio ([1]; 60 min p.i.): 1.36
Heart/Liver Counts/Gram ratio ([1]; 60 min p.i.): 10.63
Heart/Lung Counts/Gram ratio ([1]; 60 min p.i.): 2.57
Heart/Muscle Counts/Gram ratio ([1]; 60 min p.i.): 4.68
Kidney + Urine, % injected dose/organ ([1]; 60 min p.i.): 16.05 % injected dose/organ
Liver, % injected dose/organ ([1]; 60 min p.i.): 0.46 % injected dose/organ
Lung, % injected dose/organ ([1]; 60 min p.i.): 0.23 % injected dose/organ
Blood, % injected dose/organ ([1]; 60 min p.i.): 3.49 % injected dose/organ
Muscle, % injected dose/organ ([1]; 60 min p.i.): 17.02 % injected dose/organ
Structure (SMILES): O=[N][99Tc]1([Cl])([Cl])([Cl])[N]2C=CC=c3ccc4c(c32)[N]1C=CC=4 [[^99 Tc(NO)(1,10 phen)Cl3]°]

Structure (SMILES): O=[N][99Tc]([Cl])([Cl])[Cl].c1ccc(-c2ccccn2)nc1 [[^99 Tc(NO)Cl3 (Bipy)], bipyridyltrichloronitrosyltechnetium (11)]
Brain, % injected dose/organ ([1]; 2 min p.i.): 0.06 % injected dose/organ
Heart, % injected dose/organ ([1]; 2 min p.i.): 0.32 % injected dose/organ
Heart/Blood Counts/Gram ratio ([1]; 2 min p.i.): 0.99
Heart/Liver Counts/Gram ratio ([1]; 2 min p.i.): 1.31
Heart/Lung Counts/Gram ratio ([1]; 2 min p.i.): 1.30
Heart/Muscle Counts/Gram ratio ([1]; 2 min p.i.): 1.69
Kidney + Urine, % injected dose/organ ([1]; 2 min p.i.): 11.30 % injected dose/organ
Liver + GI, % injected dose/organ ([1]; 2 min p.i.): 0.00 % injected dose/organ
Liver, % injected dose/organ ([1]; 2 min p.i.): 3.43 % injected dose/organ
Lung, % injected dose/organ ([1]; 2 min p.i.): 0.45 % injected dose/organ
Blood, % injected dose/organ ([1]; 2 min p.i.): 7.17 % injected dose/organ
Muscle, % injected dose/organ ([1]; 2 min p.i.): 24.17 % injected dose/organ
Brain, % injected dose/organ ([1]; 60 min p.i.): 0.04 % injected dose/organ
Heart, % injected dose/organ ([1]; 60 min p.i.): 0.30 % injected dose/organ
Heart/Blood Counts/Gram ratio ([1]; 60 min p.i.): 2.12
Heart/Liver Counts/Gram ratio ([1]; 60 min p.i.): 1.09
Heart/Lung Counts/Gram ratio ([1]; 60 min p.i.): 4.13
Heart/Muscle Counts/Gram ratio ([1]; 60 min p.i.): 2.02
Kidney + Urine, % injected dose/organ ([1]; 60 min p.i.): 22.96 % injected dose/organ
Liver + GI, % injected dose/organ ([1]; 60 min p.i.): 0.00 % injected dose/organ
Liver, % injected dose/organ ([1]; 60 min p.i.): 3.35 % injected dose/organ
Lung, % injected dose/organ ([1]; 60 min p.i.): 0.10 % injected dose/organ
Blood, % injected dose/organ ([1]; 60 min p.i.): 2.02 % injected dose/organ
Muscle, % injected dose/organ ([1]; 60 min p.i.): 18.95 % injected dose/organ

Structure (SMILES): O=[N][Tc+][Cl].[C-]#[N+]C(C)(C)C.[C-]#[N+]C(C)(C)C.[C-]#[N+]C(C)(C)C.[C-]#[N+]C(C)(C)C [[^99 Tc(NO)Cl(t-BuCN)4]^+]
Brain, % injected dose/organ ([1]; 2 min p.i.): 0.04 % injected dose/organ
Heart, % injected dose/organ ([1]; 2 min p.i.): 1.09 % injected dose/organ
Heart/Blood Counts/Gram ratio ([1]; 2 min p.i.): 6.19
Heart/Liver Counts/Gram ratio ([1]; 2 min p.i.): 2.58
Heart/Lung Counts/Gram ratio ([1]; 2 min p.i.): 3.34
Kidney + Urine, % injected dose/organ ([1]; 2 min p.i.): 6.86 % injected dose/organ
Liver, % injected dose/organ ([1]; 2 min p.i.): 5.82 % injected dose/organ
Lung, % injected dose/organ ([1]; 2 min p.i.): 0.64 % injected dose/organ
Blood, % injected dose/organ ([1]; 2 min p.i.): 0.40 % injected dose/organ
Muscle, % injected dose/organ ([1]; 2 min p.i.): 21.45 % injected dose/organ
Brain, % injected dose/organ ([1]; 60 min p.i.): 0.04 % injected dose/organ
Heart, % injected dose/organ ([1]; 60 min p.i.): 1.37 % injected dose/organ
Heart/Blood Counts/Gram ratio ([1]; 60 min p.i.): 8.98
Heart/Liver Counts/Gram ratio ([1]; 60 min p.i.): 2.97
Heart/Lung Counts/Gram ratio ([1]; 60 min p.i.): 26.02
Kidney + Urine, % injected dose/organ ([1]; 60 min p.i.): 8.15 % injected dose/organ
Liver, % injected dose/organ ([1]; 60 min p.i.): 5.89 % injected dose/organ
Lung, % injected dose/organ ([1]; 60 min p.i.): 0.12 % injected dose/organ
Muscle, % injected dose/organ ([1]; 60 min p.i.): 18.30 % injected dose/organ

Structure (SMILES): CCP(CC)CCP(CC)CC.CCP(CC)CCP(CC)CC.O=[N][99Tc+][Cl].[Cl-] [[^99m Tc(NO(DEPE)2 Cl]^+]
Blood, % injected dose/organ ([2]; 2 min): 6.00 % injected dose/organ
Heart, % injected dose/organ ([2]; 2 min): 1.06 % injected dose/organ
Heart/Blood Counts/Gram ratio ([2]; 2 min): 3.03
Heart/Liver Counts/Gram ratio ([2]; 2 min): 0.73
Heart/Lung Counts/Gram ratio ([2]; 2 min): 0.4
Heart/Muscle Counts/Gram ratio ([2]; 2 min): 5.94
Kidney + Urine, % injected dose/organ ([2]; 2 min): 13.8 % injected dose/organ
Liver + GI, % injected dose/organ ([2]; 2 min): 37.3 % injected dose/organ
Liver, % injected dose/organ ([2]; 2 min): 23.63 % injected dose/organ
Lung, % injected dose/organ ([2]; 2 min): 2.98 % injected dose/organ
Muscle, % injected dose/organ ([2]; 2 min): 22.9 % injected dose/organ
Blood, % injected dose/organ ([2]; 60 min): 0.41 % injected dose/organ
Heart, % injected dose/organ ([2]; 60 min): 0.92 % injected dose/organ
Heart/Blood Counts/Gram ratio ([2]; 60 min): 38.1
Heart/Liver Counts/Gram ratio ([2]; 60 min): 1.75
Heart/Lung Counts/Gram ratio ([2]; 60 min): 0.6
Heart/Muscle Counts/Gram ratio ([2]; 60 min): 6.18
Kidney + Urine, % injected dose/organ ([2]; 60 min): 19.3 % injected dose/organ
Liver + GI, % injected dose/organ ([2]; 60 min): 47.0 % injected dose/organ
Liver, % injected dose/organ ([2]; 60 min): 7.54 % injected dose/organ
Lung, % injected dose/organ ([2]; 60 min): 1.57 % injected dose/organ
Muscle, % injected dose/organ ([2]; 60 min): 19.1 % injected dose/organ

Structure (SMILES): CCCP(C)CCP(C)CCC.CCCP(C)CC[P](C)(CCC)[99Tc+]([Cl])[N]=O (centres unmarked) [[^99m Tc(NO) × (PMPE)2]^+]
Blood, % injected dose/organ ([2]; 2 min): 3.27 % injected dose/organ
Heart, % injected dose/organ ([2]; 2 min): 0.92 % injected dose/organ
Heart/Blood Counts/Gram ratio ([2]; 2 min): 4.15
Heart/Liver Counts/Gram ratio ([2]; 2 min): 0.44
Heart/Muscle Counts/Gram ratio ([2]; 2 min): 4.78
Kidney + Urine, % injected dose/organ ([2]; 2 min): 13.3 % injected dose/organ
Liver + GI, % injected dose/organ ([2]; 2 min): 44.7 % injected dose/organ
Liver, % injected dose/organ ([2]; 2 min): 27.4 % injected dose/organ
Lung, % injected dose/organ ([2]; 2 min): 1.40 % injected dose/organ
Muscle, % injected dose/organ ([2]; 2 min): 21.1 % injected dose/organ
Blood, % injected dose/organ ([2]; 60 min): 0.42 % injected dose/organ
Heart, % injected dose/organ ([2]; 60 min): 0.77 % injected dose/organ
Heart/Blood Counts/Gram ratio ([2]; 60 min): 27.8
Heart/Liver Counts/Gram ratio ([2]; 60 min): 1.65
Heart/Lung Counts/Gram ratio ([2]; 60 min): 2.3
Heart/Muscle Counts/Gram ratio ([2]; 60 min): 5.01
Kidney + Urine, % injected dose/organ ([2]; 60 min): 15.2 % injected dose/organ
Liver + GI, % injected dose/organ ([2]; 60 min): 53.6 % injected dose/organ
Liver, % injected dose/organ ([2]; 60 min): 6.23 % injected dose/organ
Lung, % injected dose/organ ([2]; 60 min): 0.53 % injected dose/organ
Muscle, % injected dose/organ ([2]; 60 min): 17.5 % injected dose/organ
Heart/Lung Counts/Gram ratio ([1]; 2 min p.i.): 1.0

Brain, % injected dose/organ ([1]; 2 min p.i.): 0.09 % injected dose/organ
Heart, % injected dose/organ ([1]; 2 min p.i.): 0.55 % injected dose/organ
Heart/Blood Counts/Gram ratio ([1]; 2 min p.i.): 0.41
Heart/Liver Counts/Gram ratio ([1]; 2 min p.i.): 1.37
Heart/Muscle Counts/Gram ratio ([1]; 2 min p.i.): 2.14
Kidney + Urine, % injected dose/organ ([1]; 2 min p.i.): 6.26 % injected dose/organ
Liver + GI, % injected dose/organ ([1]; 2 min p.i.): 13.49 % injected dose/organ
Liver, % injected dose/organ ([1]; 2 min p.i.): 5.31 % injected dose/organ
Lung, % injected dose/organ ([1]; 2 min p.i.): 2.09 % injected dose/organ
Blood, % injected dose/organ ([1]; 2 min p.i.): 20.32 % injected dose/organ
Muscle, % injected dose/organ ([1]; 2 min p.i.): 30.35 % injected dose/organ
Brain, % injected dose/organ ([1]; 60 min p.i.): 0.05 % injected dose/organ
Heart, % injected dose/organ ([1]; 60 min p.i.): 0.42 % injected dose/organ
Heart/Blood Counts/Gram ratio ([1]; 60 min p.i.): 0.43
Heart/Liver Counts/Gram ratio ([1]; 60 min p.i.): 0.98
Heart/Muscle Counts/Gram ratio ([1]; 60 min p.i.): 1.66
Kidney + Urine, % injected dose/organ ([1]; 60 min p.i.): 14.61 % injected dose/organ
Liver + GI, % injected dose/organ ([1]; 60 min p.i.): 11.89 % injected dose/organ
Liver, % injected dose/organ ([1]; 60 min p.i.): 4.59 % injected dose/organ
Lung, % injected dose/organ ([1]; 60 min p.i.): 1.71 % injected dose/organ
Blood, % injected dose/organ ([1]; 60 min p.i.): 14.94 % injected dose/organ
Muscle, % injected dose/organ ([1]; 60 min p.i.): 30.41 % injected dose/organ
Structure (SMILES): O=[N][99Tc-]([Cl])([Cl])([Cl])[Cl] [[^99m TcNOCl4]^-]
